According to patent publication US12329137B2, “Method of preparing mouse model of herpes” (AJOU UNIVERSITY INDUSTRY-ACADEMIC COOPERATION FOUNDATION, priority 2019, dated 2025):

What was measured:
Assay type in all cases: in vivo, ICR mice
[1] = tested on: DX5+ immune-related cells; assay: Flow cytometry frequency of DX5+ cells in peripheral blood leukocytes; settings: HSV-1 inoculated mice
Description: (§1) The ear inner conch of a large number of 5-week-old ICR mice bred and reared in SPF (specific pathogen free) conditions was injured by being scratched with an injection needle at a strength sufficient to prevent blood from bleeding out, then the injured site was first inoculated with 20 μL of HSV-1 (herpes simplex virus type 1, F strain) solution (1×10^6 pfu/mL), and the mice were reared for 10 days. Next, the same injured site was secondarily inoculated with the same dose of HSV-1. One time a day for 5 days from the day after the first inoculation had been performed and one time a day for 5 days from the day after the second inoculation had been performed, hydrocortisone was intraperitoneally injected into each mouse at 50 μg/day to 500 μg/day. Thereafter, the faces of the mice were observed, mice having blisters formed around the lips were selected, and these were used as mouse models of herpes (FIG. 1).
(§2) Each mouse model of herpes was prepared by way of the method of Example 1 except that hydrocortisone was administered at about 50 μg/day, 150 μg/day, or 500 μg/day. Thereafter, peripheral blood was collected from each of the mouse models of herpes, peripheral blood leukocytes was isolated and obtained from the collected blood, and the frequencies of immune-related cells (CD4+, CD8+, and DX5+) contained in the peripheral blood leukocytes were measured and comparatively analyzed via flow cytometry (Tables 1 and 2). In this case, mouse models of herpes prepared without administration of hydrocortisone were used as a control group.

[2] = tested on: herpes simplex virus type 1 (HSV-1); assay: Prevalence rate of herpes in mice given HSV-1 with hydrocortisone
Description: as §1

[3] = tested on: CD4+ immune-related cells; assay: Flow cytometry frequency of CD4+ cells in peripheral blood leukocytes; settings: HSV-1 inoculated mice
Description: as §1, §2

[4] = tested on: CD8+ immune-related cells; assay: Flow cytometry frequency of CD8+ cells in peripheral blood leukocytes; settings: HSV-1 inoculated mice
Description: as §1, §2

[5] = hydrocortisone 50 μg/day intraperitoneal
[6] = hydrocortisone 150 μg/day intraperitoneal
[7] = hydrocortisone 500 μg/day intraperitoneal

C[C@]12CCC(=O)C=C1CC[C@@H]1[C@@H]2[C@@H](O)C[C@@]2(C)[C@H]1CC[C@]2(O)C(=O)CO [Hydrocortisone, hydrocortisone]
expression frequency of DX5+ cells [1, 5]: 4.4 ± 2.4% | expression frequency of DX5+ cells [1, 6]: 2.89 ± 1.9% | expression frequency of DX5+ cells [1, 7]: 2.5 ± 1.9% | Prevalence rate of herpes (symptomatic mice/total mice) ([2]; HSV-1 + hydrocortisone at 150 μg/day in combination): 14.7% (14/95) | prevalence rate of herpes relative to mice administered with HSV-1 singly ([2]; HSV-1 + hydrocortisone at 150 μg/day in combination vs HSV-1 singly): about 2.5 times | expression frequency of CD4+ cells [3, 5]: 15.8 ± 8.8% | expression frequency of CD4+ cells [3, 6]: 12.4 ± 7.8% | expression frequency of CD4+ cells [3, 7]: 12.3 ± 4.7% | expression frequency of CD8+ cells [4, 5]: 6.44 ± 2.6% | expression frequency of CD8+ cells [4, 6]: 4.78 ± 1.7% | expression frequency of CD8+ cells [4, 7]: 4.2 ± 1.7%
